Measurements taken from ChEMBL document CHEMBL1133833, “Dopaminergic 7-aminotetrahydroindolizines: ex-chiral pool synthesis and preferential D3 receptor binding” (Bioorg Med Chem Lett, 2001).

Columns and labels:
[1] = molecular target: D(1A) dopamine receptor (Bos taurus, UniProt Q95136); assay: In vitro ability to displace [3H]SCH-23390 from bovine Dopamine receptor D1 in striatal membranes.
[2] = molecular target: T1, D(2) dopamine receptor (Bos taurus, UniProt P20288); assay: In vitro ability to displace [3H]pramipexole from high affinity binding sites of bovine D2 receptors in striatal membranes.
[3] = molecular target: T1, D(2) dopamine receptor; assay: In vitro ability to displace [3H]-spiperone from bovine cloned Dopamine receptor D2 stably expressed in CHO cells.; type: cell-based
[4] = molecular target: D(3) dopamine receptor (Homo sapiens, UniProt P35462)
Chain of D(3) dopamine receptor (P35462 whole entry): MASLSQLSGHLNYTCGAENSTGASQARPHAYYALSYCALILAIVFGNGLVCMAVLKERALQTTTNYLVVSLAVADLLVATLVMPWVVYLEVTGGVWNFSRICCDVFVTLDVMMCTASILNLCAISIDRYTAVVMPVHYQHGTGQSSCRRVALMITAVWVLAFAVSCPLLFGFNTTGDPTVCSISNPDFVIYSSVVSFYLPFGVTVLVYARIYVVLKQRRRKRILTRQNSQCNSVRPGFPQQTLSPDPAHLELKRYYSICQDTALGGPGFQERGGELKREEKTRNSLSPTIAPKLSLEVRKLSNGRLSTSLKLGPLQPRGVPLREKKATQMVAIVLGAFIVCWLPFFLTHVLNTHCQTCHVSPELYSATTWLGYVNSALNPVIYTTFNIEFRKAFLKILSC
Description: In vitro ability to displace [3H]spiperone from human cloned Dopamine receptor D3 stably expressed in CHO cells.

Chain of D(1A) dopamine receptor (Q95136 whole entry): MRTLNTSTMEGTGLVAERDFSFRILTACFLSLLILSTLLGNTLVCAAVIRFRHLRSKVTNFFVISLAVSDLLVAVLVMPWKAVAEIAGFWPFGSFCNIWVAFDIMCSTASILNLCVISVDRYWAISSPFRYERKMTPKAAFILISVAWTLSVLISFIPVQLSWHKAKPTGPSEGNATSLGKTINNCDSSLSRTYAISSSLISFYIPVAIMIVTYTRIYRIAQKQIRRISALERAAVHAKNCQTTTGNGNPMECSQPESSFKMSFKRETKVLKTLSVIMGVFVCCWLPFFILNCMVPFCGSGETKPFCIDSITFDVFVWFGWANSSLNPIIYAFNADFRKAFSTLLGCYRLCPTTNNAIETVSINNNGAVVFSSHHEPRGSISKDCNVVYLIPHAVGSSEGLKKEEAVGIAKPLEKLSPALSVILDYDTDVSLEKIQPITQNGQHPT
T1 sequence (P20288 whole entry): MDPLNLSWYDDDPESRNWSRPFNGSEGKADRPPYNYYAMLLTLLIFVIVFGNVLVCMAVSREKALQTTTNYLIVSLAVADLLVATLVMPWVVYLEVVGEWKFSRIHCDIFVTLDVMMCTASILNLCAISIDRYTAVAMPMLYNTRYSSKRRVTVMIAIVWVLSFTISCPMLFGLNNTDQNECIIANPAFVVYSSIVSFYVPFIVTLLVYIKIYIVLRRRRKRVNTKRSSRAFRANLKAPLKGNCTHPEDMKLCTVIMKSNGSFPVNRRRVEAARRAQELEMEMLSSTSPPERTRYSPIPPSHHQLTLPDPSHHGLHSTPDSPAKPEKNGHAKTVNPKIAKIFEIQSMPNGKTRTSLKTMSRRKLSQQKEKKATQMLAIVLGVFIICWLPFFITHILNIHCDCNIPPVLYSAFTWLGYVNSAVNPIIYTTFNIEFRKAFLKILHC

Row | SMILES | Ki [1] | Ki [2] | Ki [3] | Ki [4]
1 | CCCN(CCC)[C@H]1CCn2c(C=O)ccc2C1 | 26 µM | 0.021 µM |  | 
2 | CCCN(CCC)[C@H]1CCn2c(C)ccc2C1 | 29 µM | 0.15 µM | 3.8 µM | 0.43 µM
3 | CCCN(CCC)[C@@H]1CCn2cc(C)cc2C1 | 83 µM | 0.8 µM | 17 µM | 1.3 µM
4 | CCCN(CCC)[C@@H]1CCn2c(CO)ccc2C1 | > 100 µM | 4.7 µM | 37 µM | 7.4 µM
5 | CCCN(CCC)[C@H]1CCn2ccc(CO)c2C1 | > 100 µM | 8 µM | 55 µM | 9.7 µM
6 | CCCN(CCC)[C@@H]1CCn2cccc2C1 | > 100 µM | 0.15 µM | 4.1 µM | 0.56 µM
7 | CCCN(CCC)[C@H]1CCn2ccc(C=O)c2C1 | > 100 µM | 1.6 µM | 5.9 µM | 3.6 µM
8 | CCCN(CCC)[C@H]1CCn2cc(CO)cc2C1 | > 100 µM | 13 µM | > 100 µM | 8.6 µM
9 | CCCN(CCC)[C@H]1CCn2ccc(C)c2C1 | 68 µM | 0.38 µM | 4 µM | 0.75 µM
10 | CCCN(CCC)[C@@H]1CCn2c(C=O)ccc2C1 | 47 µM | 1.7 µM | 21 µM | 1.8 µM
11 | CCCN(CCC)[C@@H]1CCn2ccc(C)c2C1 | 71 µM | 1 µM | 12 µM | 2.1 µM
12 | CCCN(CCC)[C@H]1CCn2c(CO)ccc2C1 | 13 µM | 0.087 µM | 5.5 µM | 0.42 µM
13 | CCCN(CCC)[C@@H]1CCn2ccc(CO)c2C1 | 100 µM | 0.2 µM | 6.1 µM | 0.33 µM
14 | CCCN(CCC)[C@@H]1CCn2c(C)ccc2C1 | 12 µM | 0.43 µM | 1.3 µM | 0.59 µM
15 | CCCN(CCC)[C@H]1CCn2cc(C)cc2C1 | 44 µM | 0.64 µM | 9.6 µM | 0.77 µM
16 | CCCN(CCC)[C@@H]1CCn2cc(CO)cc2C1 | > 100 µM | 1 µM | 34 µM | 1.4 µM
17 | CCCN(CCC)[C@@H]1CCn2ccc(C=O)c2C1 | 80 µM | 0.38 µM | 12 µM | 0.51 µM
